Measured values from patent US20260159536A1, “AKR1C3-ACTIVATED DNA ALKYLATING AGENT, AND MEDICAL APPLICATION THEREOF” (ASCENTAWITS PHARMACEUTICALS, LTD., priority 2021, published 2026).

Assays:
SNU886 = assay: Cytotoxicity on hepatocellular carcinoma cell line SNU886; assay type: cell-based
Protocol: If not otherwise specified, IC50 values were measured by the following experimental methods:
a) Cells were plated for 24 hours, and then the compounds acted singly. 99 μL of growth medium was supplemented per well, and then 1 μL of 200× compound was added, gently shaken to ensure uniform mixing, and then placed in a 37° C., 5% CO2 incubator.
b) The cell plate was placed in the incubator for 72 hours.
b) 100 μL of CTG reagent (CelltiterGlo kit) was added to each well, the plate was placed in a rapid oscillator and shaken for 2 minutes, and then placed at room temperature for 30 minutes away from light.
The IC50 was calculated using GraphPad Prism 8 software and the IC50 (half inhibitory concentration) of the compounds was obtained using the following non-linear fitting formula: […]
Using the same experimental methods as described above, Compounds A, B and C were further tested for cytotoxicity against different hepatocellular carcinoma (HCC) cell lines SNU354, SNU886, MHCC97H and huH-1, and the results were shown in Table 2 below: […]

[1] = tested on: human liver cancer LI6652; assay: In vivo pharmacodynamics, liver cancer LI6652 subcutaneous xenograft PDX model; design: species or system BALB/c nude mice; conditions: for Relative tumor volume (x ± S) / T/C (%) / TGI (%) / Tumor volume (x ± S): 2 weeks off, 2 cycles
Protocol: The pharmacodynamic analysis of each group in liver cancer LI6652 model was performed on Day 31 after administration, and the results were shown in Table 12.

[2] = tested on: HuPrime model PA1222 human pancreatic cancer; assay: In vivo pharmacodynamics, pancreatic cancer PA1222 PDX model; conditions: for Tumor volume: 10 mg/kg i.v.
Protocol: The test was divided into groups of test drug Gemcitabine 120 mg/kg group, test drug Compound A 10 mg/kg and 7.5% anhydrous ethanol+7.5% polyoxyethylene (35) castor oil+85% glucose injection DSW (pH 7.4) vehicle control group, a total of 3 groups, with 5 mice per group. […] Test drug Gemcitabine (Gemcitabine) 120 mg/kg group was administered intraperitoneally, once a week for three consecutive weeks.

[3] = tested on: HuPrime model LU2505 human lung cancer; assay: In vivo pharmacodynamics, lung cancer LU2505 PDX model; design: species or system BALB/c nude mice; conditions: for Tumor volume (x ± S): in mm³ (unit assumed)
[4] = Plasma stability test, human; assay type: in vitro ADME; conditions: 37° C.
Protocol: The pH of the plasma was checked and recorded. Note: a.
The final concentration of solvent was 0.5%.
The assay was performed in duplicate. […] The tubes were mixed by vortex for 5 minutes.

[5] = MTD assay of AST-3424, single 30 min intravenous drip; assay type: in vivo, machins; conditions: for maximal tolerance dose: single dose; for day of test substance-related death: male
Protocol: The maximal tolerance dose in machins after a single administration of AST-3424 injection by intravenous drip for 30 minutes was evaluated.

[6] = 1.25 mg/kg i.p. QDx5, 2 days off, Day 28
[7] = 2.5 mg/kg i.p. QDx5, 2 days off, Day 28
[8] = 5 mg/kg i.p. QDx5, 2 days off, Day 28

In the case of `O=[N+]([O-])c1ccc(C(OP(=O)(N2CC2)N2CC2)C(F)(F)F)cc1Oc1ccc(-c2ccc(F)cc2)c(F)c1` (racemic) [Compound A], the “ratio A/B” value (SNU886; IC50 ratio) is reported as 1.66, the “ratio A/C” value (SNU886; IC50 ratio) is reported as 0.75 and the IC50 (SNU886; SNU-886) is reported as 628 nM. The “Relative tumor volume (x ± S)” value [1, 6] was 0.18 ± 0.07, the “T/C (%)” value [1, 6] was 1.23% and the “TGI (%)” value [1, 6] was 98.77%. The “Tumor volume (x ± S)” value [1, 6] was 24.72 ± 9.57, the Tumor volume ([1]; 1.25 mg/kg i.p., Day 0) was 126.30 mm^3 and the Tumor volume ([1]; 1.25 mg/kg i.p., Day 3) was 184.11 mm^3. For the same compound, the Tumor volume ([1]; 1.25 mg/kg i.p., Day 7) was 194.19 mm^3, the Tumor volume ([1]; 1.25 mg/kg i.p., Day 10) was 135.63 mm^3 and the Tumor volume ([1]; 1.25 mg/kg i.p., Day 14) was 51.98 mm^3. It also gave a Tumor volume ([1]; 1.25 mg/kg i.p., Day 17) of 28.94 mm^3, a Tumor volume ([1]; 1.25 mg/kg i.p., Day 21) of 29.42 mm^3 and a Tumor volume ([1]; 1.25 mg/kg i.p., Day 24) of 28.38 mm^3. The Tumor volume ([1]; 1.25 mg/kg i.p., Day 28) was 24.72 mm^3, the Tumor volume ([1]; 1.25 mg/kg i.p., Day 31) was 18.12 mm^3 and the “Relative tumor volume (x ± S)” value [1, 7] was 0.17 ± 0.10. The “T/C (%)” value [1, 7] was 1.16%, the “TGI (%)” value [1, 7] was 98.84% and the “Tumor volume (x ± S)” value [1, 7] was 18.28 ± 8.14. For the same compound, the Tumor volume ([1]; 2.5 mg/kg i.p., Day 0) was 126.29 mm^3, the Tumor volume ([1]; 2.5 mg/kg i.p., Day 3) was 179.46 mm^3 and the Tumor volume ([1]; 2.5 mg/kg i.p., Day 7) was 189.33 mm^3. The Tumor volume ([1]; 2.5 mg/kg i.p., Day 10) was 145.19 mm^3, the Tumor volume ([1]; 2.5 mg/kg i.p., Day 14) was 43.64 mm^3 and the Tumor volume ([1]; 2.5 mg/kg i.p., Day 17) was 29.90 mm^3. The Tumor volume ([1]; 2.5 mg/kg i.p., Day 21) was 21.49 mm^3, the Tumor volume ([1]; 2.5 mg/kg i.p., Day 24) was 17.91 mm^3 and the Tumor volume ([1]; 2.5 mg/kg i.p., Day 28) was 18.28 mm^3. The Tumor volume ([1]; 2.5 mg/kg i.p., Day 31) was 5.56 mm^3, the “Relative tumor volume (x ± S)” value [1, 8] was 0.02 ± 0.02 and the “T/C (%)” value [1, 8] was 0.14%. The “Tumor volume (x ± S)” value [1, 8] was 3.38 ± 3.38, the Tumor volume ([1]; 5 mg/kg i.p., Day 0) was 124.83 mm^3 and the Tumor volume ([1]; 5 mg/kg i.p., Day 3) was 174.91 mm^3. The Tumor volume ([1]; 5 mg/kg i.p., Day 7) was 190.90 mm^3, the Tumor volume ([1]; 5 mg/kg i.p., Day 10) was 130.55 mm^3 and the Tumor volume ([1]; 5 mg/kg i.p., Day 14) was 34.29 mm^3. The Tumor volume ([1]; 5 mg/kg i.p., Day 17) was 19.84 mm^3, the Tumor volume ([1]; 5 mg/kg i.p., Day 21) was 13.80 mm^3 and the Tumor volume ([1]; 5 mg/kg i.p., Day 24) was 12.20 mm^3. For the same compound, the Tumor volume ([1]; 5 mg/kg i.p., Day 28) was 3.38 mm^3, the Tumor volume ([1]; 5 mg/kg i.p., Day 31) was 2.62 mm^3 and the “relative tumor inhibition TGI (%)” value ([1]; 1.25, 2.5, 5 mg/kg i.p.) was “exceeding 98%”. For the same compound, the “effect on body weight” value ([1]; 1.25, 2.5, 5 mg/kg, at least 28 days) was “no significant effect on the body weight”, the “toxic side effects (body weight change)” value ([2]; 10 mg/kg i.v. QWx3) was “without toxic side effects” and the Tumor volume ([2]; Day 0) was 111.50 mm^3. It also gave a Tumor volume ([2]; Day 3) of 117.62 mm^3, a Tumor volume ([2]; Day 7) of 113.91 mm^3 and a Tumor volume ([2]; Day 10) of 107.17 mm^3. The Tumor volume ([2]; Day 14) was 66.08 mm^3, the Tumor volume ([2]; Day 17) was 42.94 mm^3 and the Tumor volume ([2]; Day 21) was 23.22 mm^3. For the same compound, the Tumor volume ([2]; Day 24) was 21.20 mm^3, the Tumor volume ([2]; Day 28) was 12.51 mm^3 and the “Relative tumor volume (x ± S)” value ([2]; 10 mg/kg, QWx3, i.v., Day 28) was 0.10 ± 0.04. For the same compound, the “T/C (%)” value ([2]; 10 mg/kg, QWx3, i.v., Day 28) was 2.86%, the “TGI (%)” value ([2]; 10 mg/kg, QWx3, i.v., Day 28) was 97.14% and the “Tumor volume (x ± S)” value ([2]; 10 mg/kg, QWx3, i.v., Day 28) was 12.51 ± 5.25. For the same compound, the “Relative tumor volume (x ± S)” value ([3]; 1.25 mg/kg i.v. QWx3, Day 28) was 4.61 ± 1.57, the “T/C (%)” value ([3]; 1.25 mg/kg i.v. QWx3, Day 28) was 43.14% and the “TGI (%)” value ([3]; 1.25 mg/kg i.v. QWx3, Day 28) was 56.86%. The “Tumor volume (x ± S)” value ([3]; 1.25 mg/kg i.v. QWx3, Day 28) was 485.95 ± 175.25, the Tumor volume ([3]; 1.25 mg/kg i.v., Day 0) was 103.28 mm^3 and the Tumor volume ([3]; 1.25 mg/kg i.v., Day 4) was 156.32 mm^3. The Tumor volume ([3]; 1.25 mg/kg i.v., Day 7) was 231.55 mm^3, the Tumor volume ([3]; 1.25 mg/kg i.v., Day 11) was 242.12 mm^3 and the Tumor volume ([3]; 1.25 mg/kg i.v., Day 14) was 291.72 mm^3. It also gave a Tumor volume ([3]; 1.25 mg/kg i.v., Day 18) of 383.24 mm^3, a Tumor volume ([3]; 1.25 mg/kg i.v., Day 21) of 434.92 mm^3 and a Tumor volume ([3]; 1.25 mg/kg i.v., Day 25) of 478.15 mm^3. The Tumor volume ([3]; 1.25 mg/kg i.v., Day 28) was 485.95 mm^3, the “Relative tumor volume (x ± S)” value ([3]; 2.5 mg/kg i.v. QWx3, Day 28) was 1.11 ± 0.56 and the “T/C (%)” value ([3]; 2.5 mg/kg i.v. QWx3, Day 28) was 10.43%. For the same compound, the “TGI (%)” value ([3]; 2.5 mg/kg i.v. QWx3, Day 28) was 89.57%, the “Tumor volume (x ± S)” value ([3]; 2.5 mg/kg i.v. QWx3, Day 28) was 102.06 ± 47.51 and the Tumor volume ([3]; 2.5 mg/kg i.v., Day 0) was 103.26 mm^3. It also gave a Tumor volume ([3]; 2.5 mg/kg i.v., Day 4) of 149.02 mm^3, a Tumor volume ([3]; 2.5 mg/kg i.v., Day 7) of 131.34 mm^3 and a Tumor volume ([3]; 2.5 mg/kg i.v., Day 11) of 109.62 mm^3. For the same compound, the Tumor volume ([3]; 2.5 mg/kg i.v., Day 14) was 116.57 mm^3, the Tumor volume ([3]; 2.5 mg/kg i.v., Day 18) was 113.09 mm^3 and the Tumor volume ([3]; 2.5 mg/kg i.v., Day 21) was 103.18 mm^3. The Tumor volume ([3]; 2.5 mg/kg i.v., Day 25) was 92.38 mm^3, the Tumor volume ([3]; 2.5 mg/kg i.v., Day 28) was 102.06 mm^3 and the “Relative tumor volume (x ± S)” value ([3]; 5 mg/kg i.v. QWx3, Day 28) was 0.17 ± 0.07. For the same compound, the “T/C (%)” value ([3]; 5 mg/kg i.v. QWx3, Day 28) was 1.60%, the “TGI (%)” value ([3]; 5 mg/kg i.v. QWx3, Day 28) was 98.40% and the “Tumor volume (x ± S)” value ([3]; 5 mg/kg i.v. QWx3, Day 28) was 19.00 ± 8.08. It also gave a Tumor volume ([3]; 5 mg/kg i.v., Day 0) of 103.23 mm^3, a Tumor volume ([3]; 5 mg/kg i.v., Day 4) of 139.41 mm^3 and a Tumor volume ([3]; 5 mg/kg i.v., Day 7) of 111.31 mm^3. For the same compound, the Tumor volume ([3]; 5 mg/kg i.v., Day 11) was 62.41 mm^3, the Tumor volume ([3]; 5 mg/kg i.v., Day 14) was 42.40 mm^3 and the Tumor volume ([3]; 5 mg/kg i.v., Day 18) was 34.32 mm^3. For the same compound, the Tumor volume ([3]; 5 mg/kg i.v., Day 21) was 30.63 mm^3, the Tumor volume ([3]; 5 mg/kg i.v., Day 25) was 20.52 mm^3 and the Tumor volume ([3]; 5 mg/kg i.v., Day 28) was 19.00 mm^3. For the same compound, the “toxic side effects (body weight change)” value ([3]; 1.25, 2.5, 5 mg/kg i.v. QWx3) was “without toxic side effects”, the “Percentage remaining after 2 hours in plasma” value ([4]; Human plasma, 5 μM) was 60.06% and the “remained in plasma after 2 hours” value ([4]; human plasma) was 60.06%.

With `C[C@@H](OP(=O)(N1CC1)N1CC1)c1ccc([N+](=O)[O-])c(Oc2cccc(C(=O)N(C)C)c2)c1` [AST-3424] the maximal tolerance dose ([5]; female machins) was 1.5 mg/kg, the clinical observation ([5]; female monkeys, 1.5 mg/kg) was “weight loss, decreased food consumption, diarrhoea and vomiting” and the maximal tolerance dose ([5]; male machins) was 0.5 mg/kg. For the same compound, the “day of test substance-related death” value ([5]; 1.0 mg/kg) was 16 days, the “day of test substance-related death” value ([5]; 1.5 mg/kg) was 8 days and the “doses at which death of male monkeys was observed” value ([5]; single intravenous drip 30 minutes) was ≥ 1.0 mg/kg.
